Source: ChEMBL document CHEMBL1201862, “PubChem BioAssay data set” (2004)
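Method: 48-hour compound exposure of cells in 96-well plates, five concentrations, linear interpolation of endpoints. Here, GI50 denotes the concentration required for 50% inhibition of growth.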 Calls of active or inactive are those of the source. Cut-off read from the data, not from the text of the source: active = GI50 up to about 1.1 µM and inactive = higher.

Columns and labels:
Assay in all cases: NCI anticancer screen, dose series, 48 h
HOP-92 = system: HOP-92
MDA-N = system: MDA-N
MDA-MB-435 = system: MDA-MB-435
CCRF-CEM = system: CCRF-CEM
SNB-19 = system: SNB-19
SNB-75 = system: SNB-75
SK-OV-3 = system: SK-OV-3
SF-539 = system: SF-539
LOX IMVI = system: LOX IMVI
HCT-116 = system: HCT-116
HCC 2998 = system: HCC 2998
NCI-H226 = system: NCI-H226
ACHN = system: ACHN
HL-60 = system: HL-60
SN12C = system: SN12C
MOLT-4 = system: MOLT-4
SK-MEL-2 = system: SK-MEL-2
NCI-H23 = system: NCI-H23
U-251 = system: U-251

Measured: GI50

[N-]=[N+]=NC(c1ccccc1)(c1ccccc1)c1ccccc1
inactive: HOP-92 17.1 µM | MDA-N 16.4 µM | MDA-MB-435 19.1 µM | CCRF-CEM 19.1 µM | SNB-19 18.4 µM | SNB-75 16.9 µM | SK-OV-3 29.4 µM | SF-539 16.9 µM | LOX IMVI 19.1 µM | HCT-116 16 µM | HCC 2998 15.8 µM | NCI-H226 17.3 µM | ACHN 15.7 µM | HL-60 17.2 µM | SN12C 16.7 µM | MOLT-4 16.1 µM | SK-MEL-2 15.5 µM | NCI-H23 16.5 µM | U-251 15.8 µM

COc1ccc2c(c1)CCCN1CCc3ccccc3C21 (stereo unspecified)
inactive: HOP-92 37.2 µM | MDA-N 18.9 µM | MDA-MB-435 21.7 µM | CCRF-CEM 26.1 µM | SNB-19 42.6 µM | SNB-75 16.4 µM | SK-OV-3 52.2 µM | SF-539 28.6 µM | LOX IMVI 32.5 µM | HCT-116 16.8 µM | HCC 2998 69 µM | NCI-H226 30.1 µM | ACHN 47.3 µM | HL-60 17.1 µM | SN12C 23.3 µM | MOLT-4 80.4 µM | SK-MEL-2 40.5 µM | NCI-H23 35.7 µM | U-251 28.4 µM

COc1ccc(/N=c2/oc3ccccc3cc2C(N)=O)cc1
inactive: HOP-92 27.8 µM | MDA-N > 100 µM | MDA-MB-435 92.5 µM | CCRF-CEM > 100 µM | SNB-19 1.91 µM | SNB-75 36.6 µM | SK-OV-3 20 µM | SF-539 23.1 µM | LOX IMVI 33.7 µM | HCT-116 26 µM | HCC 2998 > 100 µM | NCI-H226 65.9 µM | ACHN 18.4 µM | HL-60 > 100 µM | SN12C > 100 µM | MOLT-4 > 100 µM | SK-MEL-2 55.2 µM | NCI-H23 29.8 µM | U-251 33.3 µM

CC1(C)CCC(C)(C)C1C(=O)NC(O)C(=O)O (stereo unspecified)
inactive: HOP-92 2.43 µM | MDA-N > 100 µM | MDA-MB-435 > 100 µM | CCRF-CEM > 100 µM | SNB-19 > 100 µM | SNB-75 > 100 µM | SK-OV-3 > 100 µM | SF-539 > 100 µM | LOX IMVI > 100 µM | HCT-116 > 100 µM | HCC 2998 > 100 µM | NCI-H226 > 100 µM | ACHN > 100 µM | HL-60 > 100 µM | SN12C > 100 µM | MOLT-4 > 100 µM | SK-MEL-2 > 100 µM | NCI-H23 > 10 µM | U-251 > 100 µM
